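1) Cells in 96-well plates. 2) Compound, 48 h, 5 concentrations. 3) Linear interpolation between surrounding doses. 4) Unreached endpoint = highest concentration. Here, GI50 denotes the concentration required for 50% inhibition of growth.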 The source made the active and inactive calls. Cut-off read from the data, not from the text of the source: active = GI50 up to about 1.1 µM and inactive = higher.
Assays:
Test in all cases: NCI-60 cell line screen, 48 h
BT-549 = system: BT-549
A498 = system: A498
HL-60 = system: HL-60
Malme-3M = system: Malme-3M
SK-MEL-5 = system: SK-MEL-5
NCI/ADR-RES = system: NCI/ADR-RES
SF-268 = system: SF-268
UACC-257 = system: UACC-257
U-251 = system: U-251
SK-MEL-2 = system: SK-MEL-2
HOP-62 = system: HOP-62
SF-539 = system: SF-539
UACC-62 = system: UACC-62
IGROV-1 = system: IGROV-1
T47D = system: T47D
COLO 205 = system: COLO 205
SNB-19 = system: SNB-19
HCT-15 = system: HCT-15
CCRF-CEM = system: CCRF-CEM
M14 = system: M14
NCI-H460 = system: NCI-H460
OVCAR-3 = system: OVCAR-3
SW-620 = system: SW-620
OVCAR-5 = system: OVCAR-5
ACHN = system: ACHN
KM12 = system: KM12
SK-MEL-28 = system: SK-MEL-28
K562 = system: K562
MOLT-4 = system: MOLT-4
OVCAR-4 = system: OVCAR-4
NCI-H522 = system: NCI-H522
786-0 = system: 786-0
EKVX = system: EKVX
HCC 2998 = system: HCC 2998
SR = system: SR
A549 = system: A549
SF-295 = system: SF-295
PC-3 = system: PC-3
UO-31 = system: UO-31
DU-145 = system: DU-145
HT-29 = system: HT-29
RPMI-8226 = system: RPMI-8226
OVCAR-8 = system: OVCAR-8
CAKI-1 = system: CAKI-1
MDA-N = system: MDA-N
HCT-116 = system: HCT-116
MCF7 = system: MCF7
LOX IMVI = system: LOX IMVI
SK-OV-3 = system: SK-OV-3
NCI-H23 = system: NCI-H23
MDA-MB-435 = system: MDA-MB-435
MDA-MB-231 = system: MDA-MB-231
NCI-H226 = system: NCI-H226

Nn1c(=S)[nH]nc(/C=C/c2c(O)ccc3ccccc23)c1=O
GI50 (BT-549): 5.43 µM (inactive) | GI50 (A498): 16.9 µM (inactive) | GI50 (HL-60): 0.203 µM (active) | GI50 (Malme-3M): 12.2 µM (inactive) | GI50 (SK-MEL-5): 10.2 µM (inactive) | GI50 (NCI/ADR-RES): 3.26 µM (inactive) | GI50 (SF-268): 2.96 µM (inactive) | GI50 (UACC-257): 5.3 µM (inactive) | GI50 (U-251): 8.22 µM (inactive) | GI50 (SK-MEL-2): 13.3 µM (inactive) | GI50 (HOP-62): 11.6 µM (inactive) | GI50 (SF-539): 19.3 µM (inactive) | GI50 (UACC-62): 4.88 µM (inactive) | GI50 (IGROV-1): 1.64 µM (inactive) | GI50 (T47D): 3.97 µM (inactive) | GI50 (COLO 205): 7.18 µM (inactive) | GI50 (SNB-19): 21.8 µM (inactive) | GI50 (HCT-15): 3.13 µM | GI50 (CCRF-CEM): 1.92 µM (inactive) | GI50 (M14): 5.71 µM (inactive) | GI50 (NCI-H460): 4.58 µM (inactive) | GI50 (OVCAR-3): 3.13 µM (inactive) | GI50 (SW-620): 4.74 µM (inactive) | GI50 (OVCAR-5): 7.08 µM (inactive) | GI50 (ACHN): 4.93 µM (inactive) | GI50 (KM12): 6.12 µM (inactive) | GI50 (SK-MEL-28): 8.95 µM (inactive) | GI50 (K562): 5.27 µM (inactive) | GI50 (MOLT-4): 4.29 µM (inactive) | GI50 (OVCAR-4): 4.06 µM (inactive) | GI50 (NCI-H522): 3.32 µM (inactive) | GI50 (786-0): 5.46 µM (inactive) | GI50 (EKVX): 2.75 µM (inactive) | GI50 (HCC 2998): 7.5 µM (inactive) | GI50 (SR): 4.67 µM (inactive) | GI50 (A549): 6.78 µM (inactive) | GI50 (SF-295): 8.85 µM (inactive) | GI50 (PC-3): 11.1 µM (inactive) | GI50 (UO-31): 6.35 µM (inactive) | GI50 (DU-145): 12.1 µM (inactive) | GI50 (HT-29): 4.03 µM (inactive) | GI50 (RPMI-8226): 28.6 µM (inactive) | GI50 (OVCAR-8): 1.78 µM (inactive) | GI50 (CAKI-1): 5.55 µM (inactive) | GI50 (MDA-N): 12.3 µM (inactive) | GI50 (HCT-116): 3.32 µM (inactive) | GI50 (MCF7): 2.72 µM (inactive) | GI50 (LOX IMVI): 2.48 µM (inactive) | GI50 (SK-OV-3): 11 µM (inactive) | GI50 (NCI-H23): 3.24 µM (inactive) | GI50 (MDA-MB-435): 13.2 µM (inactive)

O=c1ccn(C2OC(CO)C(O)C2O)c(=O)[nH]1 (stereo not given)
GI50 (BT-549): > 1000 µM (inactive) | GI50 (UACC-257): > 1000 µM (inactive) | GI50 (MDA-MB-231): > 1000 µM (inactive) | GI50 (NCI-H226): > 1000 µM (inactive) | GI50 (M14): > 1000 µM (inactive) | GI50 (OVCAR-5): > 1000 µM (inactive) | GI50 (NCI-H522): > 1000 µM (inactive) | GI50 (DU-145): > 1000 µM (inactive) | GI50 (CAKI-1): > 1000 µM (inactive)

Source: ChEMBL document CHEMBL1201862, “PubChem BioAssay data set” (2004)
